Tested on: SARS-CoV-2
Assay: microbe, parasite or virus in culture
Details: Severe acute respiratory syndrome coronavirus 2, Vero C1008, 48 h

SMILES	IC50 [µM]	IC50 (read-out: pIC50 (converted)) [µM]
CCCCN1C[C@H](O)[C@@H](O)[C@H](O)[C@H]1CO	> 20	> 20
CN1C2CCC1CC(OC(c1ccccc1)c1ccccc1)C2 (stereo not given)	> 20	> 20
C[N+]1(C)[C@@H]2CC[C@@H]1CC(OC(=O)C(CO)c1ccccc1)C2 (stereo not given in full)	> 20	> 20
CN(CCCCCCCCCCN(C)C(=O)Oc1cccc([N+](C)(C)C)c1)C(=O)Oc1cccc([N+](C)(C)C)c1	> 20	> 20
Nc1ncnc2c([C@@H]3N[C@H](CO)[C@@H](O)[C@H]3O)c[nH]c12	> 100	> 100
Cn1cc(-c2cccc3cc(C(=O)NC(=N)N)ccc23)cn1	> 20	> 20
COc1ccc(/C=C/C(=O)/C=C(O)/C=C/c2ccc(OC)c(OC)c2)cc1OC	> 20	> 20
O=c1c(-c2ccc(O)cc2)coc2c(C3O[C@H](CO)[C@@H](O)[C@H](O)[C@H]3O)c(O)ccc12 (stereo not given in full)	> 20	> 20
CC(C)c1ccc2c(c1)CCC1C(C)(C(N)=O)CCCC21C (stereo not given)	> 20	> 20
COC1C(OC(=O)/C=C/C=C/C=C/C=C/C(=O)O)CCC2(CO2)C1C1(C)OC1CC=C(C)C (stereo not given)	> 20	> 20
CCc1ccc(OCc2ccccc2C(=O)Nc2ccc3nc(C)cc(N)c3c2)cc1	> 20	> 20
CC[C@]1(c2ccccc2)NC(=O)N(C)C1=O	> 20	> 20
CCCc1nc(C)c2c(=O)nc(-c3cc(S(=O)(=O)N4CCN(CC)CC4)ccc3OCC)[nH]n12	> 20	> 20
NNC(=O)CN1C(=O)CN=C(c2ccccc2)c2cc(Br)ccc21	> 20	> 20
CCOC(=O)[C@H](CCc1ccccc1)N[C@@H](C)C(=O)N1Cc2ccccc2C[C@H]1C(=O)O	> 20	> 20
NC(C(=O)O)C(O)c1ccc(O)c(O)c1 (stereo not given)	> 20	> 20
CCC12CCCN3CCc4c(n(c5ccccc45)C(O)(C(=O)OC)C1)C32 (stereo not given)	> 20	> 20
CCN1CCN(C(=O)NC(C(=O)NC2C(=O)N3C2SC(C)(C)C3C(=O)O)c2ccccc2)C(=O)C1=O (stereo not given)	> 20	> 20
CC(C)C[C@H]1C(=O)N2CCC[C@H]2[C@]2(O)O[C@](NC(=O)[C@@H]3C=C4c5cccc6[nH]c(Br)c(c56)CC4N(C)C3)(C(C)C)C(=O)N12 (stereo not given in full)	> 20	> 20
COP(=O)(c1cc(C)cc(/C=C/C#N)c1)c1c(C(N)=O)[nH]c2ccc(Cl)cc12 (stereo not given)	> 20	> 20
CC(=O)C1(O)CCC2C3CC(C)C4=CC(=O)C=CC4(C)C3(F)C(O)CC21C (stereo not given)	> 20	> 20
COC(=O)C1=COC(C)C2CN3CCC4(C(=O)Nc5ccccc54)C3CC12 (stereo not given)	> 20	> 20
COc1ccc(Cl)cc1NC(=O)Cc1ccc(S(=O)(=O)Nc2ncc(CC(C)C)cn2)cc1	> 20	> 20
NC(CO)Cc1ccccc1 (stereo not given)	> 20	> 20
NC(=O)c1cnc(N[C@@H]2CCCC[C@@H]2N)nc1Nc1cccc(-n2nccn2)c1	> 20	> 20

SMILES	IC50 [µM]	IC50 (read-out: pIC50 (converted)) [µM]
NC(=O)c1csc(C2OC(CO)C(O)C2O)n1 (stereo not given)	> 20	> 20
O=c1[nH]c(=O)n(C2CC(O)C(CO)O2)cc1Br (stereo not given)	> 20	> 20
O=C1CC(c2ccc(O)c(O)c2)Oc2cc(O)cc(O)c21 (stereo not given)	> 20	> 20
CC[N+](C)(CC)CCC[n+]1c(-c2ccccc2)c2cc(N)ccc2c2ccc(N)cc21	> 20	> 20
COc1ccc2[nH]c3c(c2c1)CCN=C3C	> 20	> 20
COc1cc(N2CCC(N(C)C)CC2)ccc1Nc1ncc(Cl)c(Nc2ccccc2P(C)(C)=O)n1	> 20	> 20
Cc1c(NC(=O)C(C)N(C)C)c(=O)n(-c2ccccc2)n1C (stereo not given)	> 20	> 20
O[C@H](CNC[C@@H](O)[C@H]1CCc2cc(F)ccc2O1)[C@@H]1CCc2cc(F)ccc2O1	> 20	> 20
O=C1c2ccccc2-c2c1c1ccccc1c(=O)n2CCNCCO	> 20	> 20
COc1cc2c(c(OC)c1OC)-c1ccc(O)c(=O)cc1C(N)CC2 (stereo not given)	> 20	> 20
Cc1cc(-c2nc(CN3CCNCC3)no2)cc2c1C(=O)N(Cc1ccc(OC(F)(F)F)cc1)C2	> 20	> 20
COC(=O)C(N)CCCNC(=N)N[N+](=O)[O-] (stereo not given)	> 20	> 20
C[C@@H]1NC(=O)NC1=O	> 20	> 20
Cc1cc(Nc2ncnc3ccc(-c4ccc(CNCCS(C)(=O)=O)o4)cc23)ccc1Oc1ccn2ncnc2c1	> 20	> 20
CC(=O)OCC(=O)[C@@]1(O)CC[C@H]2[C@@H]3CCC4=CC(=O)CC[C@]4(C)C3(F)[C@@H](O)C[C@@]21C (stereo not given in full)	> 20	> 20
CC(C)(O)c1ccn2c(-c3ccc(F)c(-c4ccc(F)cc4C#N)c3)cnc2c1F	> 20	> 20
COC(=O)C1=C(CN2CC(F)(F)C[C@H]2C(=O)O)NC(c2nccs2)=N[C@@]1(C)c1ccc(F)cc1	> 20	> 20
CN1CCC2=C[C@H](O)[C@H]3OC(=O)c4cc5c(cc4[C@H]3[C@@H]21)OCO5	> 20	> 20
C[C@]1(O)CCC2C3CC[C@H]4CC(=O)/C(=C/O)C[C@]4(C)C3CC[C@@]21C (stereo not given in full)	> 20	> 20
CCN1C[C@]2(C)CC[C@H](O)[C@@]34[C@@H]5C[C@H]6[C@H](O)[C@@H]5[C@](O)(C[C@@H]6OC)[C@@H](C[C@H]23)[C@H]14	> 20	> 20
CCOC(=O)C(CCc1ccccc1)NC(C)C(=O)N(CC(=O)O)C1Cc2ccccc2C1 (stereo not given)	> 20	> 20
COc1ccc2c3c1O[C@H]1[C@@H](O)C=C[C@H]4C(C2)N(C)CCC341 (stereo not given in full)	> 20	> 20
OC[C@H]1O[C@@](O)(CO)[C@@H](O)[C@@H]1O	> 20	> 20
C[C@H]1CN([C@H]2CC[C@](C#N)(c3ccc(F)cc3)CC2)CC[C@]1(C(=O)O)c1ccccc1	> 20	> 20
C=C[C@](C)(O)CC[C@H]1C(=C)C[C@H](OC(C)=O)[C@H]2C(C)(C)CCC[C@]12C	> 20	> 20

SMILES	IC50 [µM]	IC50 (read-out: pIC50 (converted)) [µM]
CNC(=O)[C@H]1O[C@@H](n2cnc3c(NCc4cccc(I)c4)ncnc32)[C@@H](O)[C@H]1O	> 20	> 20
C[C@@](O)(COc1ccc(C#N)cc1)C(=O)Nc1ccc(C#N)c(C(F)(F)F)c1	> 20	> 20
CC12C=CC(=O)C=C1CCC1C2C(O)CC2(C)C1CC[C@]2(O)C(=O)COC(=O)CCC(=O)O (stereo not given in full)	> 20	> 20
CCC(CC)[C@@H](c1ccc(Nc2nc3ccccc3s2)cc1)n1cncn1	> 20	> 20
CC1(O)CCOC(=O)C1 (stereo not given)	> 20	> 20
[O-][n+]1cccc(C(Cl)=NOC[C@H](O)CN2CCCCC2)c1	> 20	> 20
C=C[C@@]1(C)CC(=O)[C@@]2(O)[C@](C)(O1)[C@@H](OC(C)=O)[C@@H](OC(=O)CCN(C)C)C1C(C)(C)CC[C@H](O)[C@@]12C (stereo not given in full)	> 20	> 20
CC(=O)OC1C=C2CCC3C(CCC4(C)C(OC(C)=O)CCC34)C2(C)CC1 (stereo not given)	> 20	> 20
Nc1nc(Cl)nc2c1ncn2[C@@H]1C[C@H](O)[C@@H](CO)O1	> 20	> 20
CC(C)C1NC(=O)[C@@H](C(C)C)OC(=O)[C@H](C(C)C)NC(=O)[C@H](C)OC(=O)[C@@H](C(C)C)NC(=O)[C@@H](C(C)C)OC(=O)[C@H](C(C)C)NC(=O)[C@H](C)OC(=O)[C@@H](C(C)C)NC(=O)[C@@H](C(C)C)OC(=O)[C@H](C(C)C)NC(=O)[C@H](C)OC1=O (stereo not given in full)	> 20	> 20
NC(C=O)C(O)C(O)C(O)CO (stereo not given)	> 20	> 20
CCCCCCN1CCN(/C(=N/CC(C)C)c2ccccc2)CC1	> 20	> 20
CC(=O)N[C@@H](CC(N)=O)C(=O)O	> 20	> 20
CN(N=O)C(=O)N[C@@H](C=O)[C@@H](O)[C@H](O)[C@H](O)CO.CN(N=O)C(=O)N[C@H]1C(O)O[C@H](CO)[C@@H](O)[C@@H]1O	> 20	> 20
C/C=C(\C)C(=O)OC1C(OC(C)=O)C2(CO)C(O)CC3(C)C(=CCC4C5(C)CCC(OC6OC(C(=O)O)C(OC7OC(CO)C(O)C(O)C7O)C(O)C6OC6OC(CO)C(O)C(O)C6O)C(C)(CO)C5CCC43C)C2CC1(C)C (stereo not given)	> 20	> 20
COc1cccc(N2CCN(C3=Nc4c(F)cccc4C(CC(=O)O)N3c3cc(C(F)(F)F)ccc3OC)CC2)c1 (stereo not given)	> 20	> 20
CCCc1ccc(C(=O)O)nc1	> 20	> 20
CC(=O)OC1CCC2C3CC[C@H]4CC(=O)C(C)=CC4(C)C3CCC12C (stereo not given in full)	> 20	> 20
C=C1[C@@H](O)C2/C=C\C[C@H](C)C(=O)[C@](C)(O)/C=C/[C@@H](OC(C)=O)[C@]23C(=O)N[C@H](Cc2ccccc2)[C@@H]3[C@@H]1C (stereo not given in full)	> 20	> 20
C[C@@H]1CC[C@@]2(OC1)OC1CC3C4CC[C@H]5CC(O)CC[C@]5(C)C4CC[C@]3(C)C1[C@@H]2C (stereo not given in full)	> 20	> 20
CC12CCC3C4CCC(O)CC4=CCC3C1CCC2O (stereo not given)	> 20	> 20
CC(=O)OCC(=O)C1CCC2C3CC[C@H]4CC(O)CCC4(C)C3C(=O)CC12C (stereo not given in full)	> 20	> 20
CN1C2CCC1CC(OC1c3ccccc3CCc3ccccc31)C2 (stereo not given)	> 20	> 20
CN(C)CCOCC(=O)NC12CC3CC(CC(C3)C1)C2	> 20	> 20
CC(=O)c1ccc2c(c1)[C@@H]1C=CC[C@@H]1[C@H](c1cc3c(cc1Br)OCO3)N2	> 20	> 20

Reference: ChEMBL document CHEMBL4651402, “Screening of ~5500 FDA-approved drugs and clinical candidates for anti-SARS-CoV-2 activity” (2021)
